Assay results as given in patent US12209102B2, “Heterocyclic compounds and uses thereof” (Kumquat Biosciences Inc., priority 2022, dated 2025).

Legend:
K-Ras G12D = biological target: T1, K-Ras G12D (Homo sapiens, UniProt P01116, G12D); assay: HTRF resonance energy transfer assay, K-Ras G12D / SOS1 interaction; assay type: biochemical; conditions: HTRF assay of Example 5; read-out: IC50 against K-Ras G12D
T1 construct: made in house; host or cells: E. coli BL21 (DE3)
Procedure, shortened: (§1)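 Compounds, tested in duplicate at 10 μM down to 0.01 μM, were read after about 10 min or more by HTRF as the 665/620 nm emission ratio (337 nm excitation) to derive IC50. This ratio reports FRET between an anti-GST-Eu donor on GST-K-Ras (wild-type or mutant) and an anti-6His-XL665 acceptor on His-hSOS1. Buffer: ~5 mM HEPES pH 7.4, 150 mM NaCl, 1 mM DTT, 0.05% BSA, 0.0025% Igepal.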

K-Ras G12S = biological target: T2, K-Ras G12S (Homo sapiens, UniProt P01116, G12S); assay: HTRF resonance energy transfer assay, K-Ras G12S / SOS1 interaction; assay type: biochemical; conditions: HTRF assay of Example 5; read-out: IC50 against K-Ras G12S
T2 construct: made in house; host or cells: E. coli BL21 (DE3)
Procedure, shortened: as §1

K-Ras G12V = biological target: T3, K-Ras G12V (Homo sapiens, UniProt P01116, G12V); assay: HTRF resonance energy transfer assay, K-Ras G12V / SOS1 interaction; assay type: biochemical; conditions: HTRF assay of Example 5; read-out: IC50 against K-Ras G12V
T3 construct: made in house; host or cells: E. coli BL21 (DE3)
Procedure, shortened: as §1

K-Ras WT = biological target: T4, K-Ras WT (Homo sapiens, UniProt P01116); assay: HTRF resonance energy transfer assay, K-Ras WT / SOS1 interaction; assay type: biochemical; conditions: HTRF assay of Example 5; read-out: IC50 against K-Ras WT
T4 construct: made in house; host or cells: E. coli BL21 (DE3)
Procedure, shortened: as §1

A549 cells = assay: Ras cellular assay, growth of cells with K-Ras G12S mutation (CellTiter-Glo); assay type: cell-based; conditions: Homo sapiens, cell growth, Example 9, G12S mutation, read-out: IC50 against A549 cells
Procedure, shortened: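 Growth inhibition IC50 values come from four-parameter fits of CellTiter-Glo luminescence, read about 6 days after compound addition. G12S-mutant A549 cells (e.g. 800/well, RPMI-1640 + 10% heat-inactivated FBS) were plated in tissue-culture-treated or ultra-low-attachment 384-well format. Dosing began the following day with serial dilutions, e.g. 10 points, 3-fold.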

SW620 cells = assay: Ras cellular assay, growth of cells with K-Ras G12V mutation (CellTiter-Glo); assay type: cell-based; conditions: Homo sapiens, SW-620; cell growth, Example 9, G12V mutation; read-out: IC50 against SW620 cells
Procedure, shortened: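 IC50 values came from a four-parameter fit of CellTiter-Glo viability, read roughly 6 days after dosing with e.g. a 10-point threefold dilution series. G12V-mutant SW620 cells (e.g. 800 per well) had been plated the previous day in RPMI-1640/10% heat-inactivated FBS, on tissue culture-treated or ultra-low attachment plates.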

T1 sequence (P01116 1-188 isoform P01116-2 G12D): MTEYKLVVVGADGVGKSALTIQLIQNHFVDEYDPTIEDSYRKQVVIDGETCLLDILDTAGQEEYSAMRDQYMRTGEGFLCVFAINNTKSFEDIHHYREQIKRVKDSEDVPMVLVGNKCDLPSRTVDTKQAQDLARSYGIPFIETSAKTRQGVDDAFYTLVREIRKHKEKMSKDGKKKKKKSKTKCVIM
T4 sequence (P01116 1-188 isoform P01116-2): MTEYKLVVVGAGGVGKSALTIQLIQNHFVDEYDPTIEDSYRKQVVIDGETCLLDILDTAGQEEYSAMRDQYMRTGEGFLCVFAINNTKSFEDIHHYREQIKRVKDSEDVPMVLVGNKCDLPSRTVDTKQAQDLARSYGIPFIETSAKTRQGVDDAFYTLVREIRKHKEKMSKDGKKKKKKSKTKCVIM
T2 sequence (P01116 1-188 isoform P01116-2 G12S): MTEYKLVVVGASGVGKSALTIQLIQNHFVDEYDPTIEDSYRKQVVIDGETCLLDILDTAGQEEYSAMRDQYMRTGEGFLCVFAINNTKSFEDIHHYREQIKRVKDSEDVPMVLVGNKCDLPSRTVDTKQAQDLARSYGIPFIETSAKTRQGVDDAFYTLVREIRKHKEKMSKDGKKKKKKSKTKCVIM
T3 sequence (P01116 1-188 isoform P01116-2 G12V): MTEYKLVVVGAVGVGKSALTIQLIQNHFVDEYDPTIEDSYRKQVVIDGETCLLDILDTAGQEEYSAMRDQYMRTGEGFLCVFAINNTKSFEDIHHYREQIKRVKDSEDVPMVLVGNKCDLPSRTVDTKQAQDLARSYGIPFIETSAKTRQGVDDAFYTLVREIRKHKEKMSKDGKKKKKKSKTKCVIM

Row | IC50 (K-Ras G12D) [nM] | IC50 (K-Ras G12S) [nM] | IC50 (K-Ras G12V) [nM] | IC50 (K-Ras WT) [nM] | IC50 (A549 cells) [nM] | IC50 (SW620 cells) [nM] | SMILES
1 | < 100 | < 100 | < 100 | < 100 | < 5000 | < 5000 | N#Cc1c(N)sc2c(F)ccc(-c3c(Cl)c4c5c(nc(OC[C@@]67CCCN6C[C@H](F)C7)nc5c3F)N(C3CCC(NC(=O)C(F)F)C3)CCO4)c12 (stereo partly drawn) [Compound 673, N-(3-(9-(2-amino-3-cyano-7-fluorobenzo[b]thiophen-4-yl)-8-chloro-10-fluoro-2-(((2R,7aS)-2-fluorotetrahydro-1H-pyrrolizin-7a(5H)-yl)methoxy)-5,6-dihydro-4H-[1,4]oxazepino[5,6,7-de]quinazolin-4-yl)cyclopentyl)-2,2-difluoroacetamide]
2 | < 100 | < 100 | < 100 | < 100 | < 5000 | < 5000 | CC(=O)NC1CCC(N2CCOc3c(Cl)c(-c4ccc(F)c5sc(N)c(C#N)c45)c(F)c4nc(OC[C@@]56CCCN5C[C@H](F)C6)nc2c34)C1 (stereo partly drawn) [Compound 781, N-(3-(9-(2-amino-3-cyano-7-fluorobenzo[b]thiophen-4-yl)-8-chloro-10-fluoro-2-(((2R,7aS)-2-fluorotetrahydro-1H-pyrrolizin-7a(5H)-yl)methoxy)-5,6-dihydro-4H-[1,4]oxazepino[5,6,7-de]quinazolin-4-yl)cyclopentyl)acetamide]
3 | < 100 | < 100 | < 100 | < 100 | < 5000 | < 5000 | CN(CCN1CCOc2c(Cl)c(-c3ccc(F)c4sc(N)c(C#N)c34)c(F)c3nc(OC[C@@]45CCCN4C[C@H](F)C5)nc1c23)C(=O)C1CCC1 [Compound 895, N-(2-(9-(2-amino-3-cyano-7-fluorobenzo[b]thiophen-4-yl)-8-chloro-10-fluoro-2-(((2R,7aS)-2-fluorotetrahydro-1H-pyrrolizin-7a(5H)-yl)methoxy)-5,6-dihydro-4H-[1,4]oxazepino[5,6,7-de]quinazolin-4-yl)ethyl)-N-methylcyclobutanecarboxamide]
4 | < 100 | < 100 | < 100 | < 100 | < 5000 | < 5000 | N#Cc1c(N)sc2c(F)ccc(-c3c(Cl)c4c5c(nc(OC[C@@]67CCCN6C[C@H](F)C7)nc5c3F)N(CC3(C#N)CCC3)CCO4)c12 [Compound 963, 2-amino-4-(8-chloro-4-((1-cyanocyclobutyl)methyl)-10-fluoro-2-(((2R,7aS)-2-fluorotetrahydro-1H-pyrrolizin-7a(5H)-yl)methoxy)-5,6-dihydro-4H-[1,4]oxazepino[5,6,7-de]quinazolin-9-yl)-7-fluorobenzo[b]thiophene-3-carbonitrile]
5 | < 100 | < 100 | < 100 | < 100 | < 5000 | < 5000 | COCCN1CCCOc2c(Cl)c(-c3ccc(F)c4sc(N)c(C#N)c34)c(F)c3nc(OC[C@@]45CCCN4C[C@H](F)C5)nc1c23 [Compound 1201, 2-amino-4-(9-chloro-11-fluoro-2-(((2R,7aS)-2-fluorotetrahydro-1H-pyrrolizin-7a(5H)-yl)methoxy)-4-(2-methoxyethyl)-4,5,6,7-tetrahydro-[1,5]oxazocino[4,3,2-de]quinazolin-10-yl)-7-fluorobenzo[b]thiophene-3-carbonitrile]

Row | SMILES | IC50 (K-Ras G12D) [nM] | IC50 (K-Ras G12S) [nM] | IC50 (K-Ras G12V) [nM] | IC50 (K-Ras WT) [nM] | IC50 (A549 cells) [nM] | IC50 (SW620 cells) [nM]
6 | N#Cc1c(N)sc2c(F)ccc(-c3c(Cl)c4c5c(nc(OC[C@@]67CCCN6C[C@H](F)C7)nc5c3F)N(C3CCC(NC(=O)[C@@H]5N[C@H]5C5CC5)C3)CCO4)c12 (stereo partly drawn) [Compound 920, (2R,3S)—N-(3-(9-(2-amino-3-cyano-7-fluorobenzo[b]thiophen-4-yl)-8-chloro-10-fluoro-2-(((2R,7aS)-2-fluorotetrahydro-1H-pyrrolizin-7a(5H)-yl)methoxy)-5,6-dihydro-4H-[1,4]oxazepino[5,6,7-de]quinazolin-4-yl)cyclopentyl)-3-cyclopropylaziridine-2-carboxamide] | < 100 | < 100 | < 100 | < 100 | < 5000 | < 5000
